Data on two compounds can be found in patent US10648038B2, “Biomarkers to identify patients that will respond to treatment and treating such patients” (Acetylon Pharmaceuticals, Inc., priority 2012, dated 2020).

The structures appear in SMILES notation.

The experiment has as its system 65 cancer cell lines. The experiment in a line: Cell viability screening of a panel of 65 cancer cell lines, association with cancer type and gene mutation. The format is cell-based, human. As for the experimental part:
65 cancer cell lines (including 12 of breast cancer, 11 of hematologic cancer, 9 of colorectal cancer, 6 of lung cancer, 6 of skin cancer, 4 brain cancer, 3 of renal cancer, 3 of liver cancer, 3 of prostate cancer, 3 of pancreatic cancer, 3 of ovarian cancer, and 2 of stomach cancer) were selected for analysis. Each of the cell lines was cultured and treated with the HDAC6 inhibitor, Compound A, with or without the proteasome inhibitor, bortezomib, before their cell viabilities were measured at the end of treatments. The sensitivities of the cell lines were described using the concentration of Compound A that provides 50% inhibition of cell viabilities (IC50). In all analyses, the logarithm of drug sensitivity values (i.e., Log [IC50]) was used, which is more normally distributed than the raw IC50 values. This is because most standard statistical tests (e.g., t-test and correlation analysis) assume the normal distribution of data points.
For the association tests of gene mutations, 50 common oncogene/tumor suppressor genes were selected to analyze the results. Mutation profiles of the cell lines were downloaded from the Sanger COSMIC DB on the Internet: www dot sanger dot ac dot uk/cosmic. For each gene locus, the “Fisher's Exact Test” was used to calculate statistical significance (p<0.05) of association between the genotype and the cell sensitivities to the treatments.

Where [1] appears, read: most cell lines of the panel, agent alone.

Turning to `O=C(CCCCCCNC(=O)c1cnc(N(c2ccccc2)c2ccccc2)nc1)NO` [Compound A, 2-(diphenylamino)-N-(7-(hydroxyamino)-7-oxoheptyl)pyrimidine-5-carboxamide], the “sensitivity of cell lines to treatment (cell viability)” value by setting is: (a number of lymphoma and leukemia cell lines, single agent) “substantial sensitivity”; (breast cancer cell lines with Her2 protein overexpression (ERBB2 amplification), Fisher's Exact Test p<0.05) “sensitive”; (breast cancer cell lines, basal-type or triple negative, Fisher's Exact Test p<0.05) “resistant”; (cell lines for hematologic malignant cancer, Compound A alone) “most sensitive”; (lymphoma cells, compared with other cell groups of the 65 lines) “most sensitive”; under setting [1], “resistant”.
`CC(C)C[C@H](NC(=O)[C@H](Cc1ccccc1)NC(=O)c1cnccn1)B(O)O` [bortezomib, reference compound]: under setting [1], the “sensitivity of cell lines to treatment (cell viability)” value is “resistant”.
